Measurements taken from PubChem BioAssay (NCI).
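Briefly, cells in 96-well plates were exposed to five compound concentrations for 48 h, and endpoints were estimated by linear interpolation. TGI is the concentration that stops growth completely.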

Tests used:
Assay in all cases: DTP human tumour cell line panel, 48 h
UACC-257 melanoma = test system: UACC-257 melanoma
786-0 renal = test system: 786-0 renal
TK-10 renal = test system: TK-10 renal
A549 NSCLC = test system: A549 NSCLC
SN12C renal = test system: SN12C renal
LOX IMVI melanoma = test system: LOX IMVI melanoma
NCI-H460 lung = test system: NCI-H460 lung
RXF-631 renal = test system: RXF-631 renal
KM20L2 colon = test system: KM20L2 colon
K-562 leukemia = test system: K-562 leukemia
HCT-15 colon = test system: HCT-15 colon
UACC-62 melanoma = test system: UACC-62 melanoma
U251 CNS = test system: U251 CNS
HOP-62 NSCLC = test system: HOP-62 NSCLC
KM12 colon = test system: KM12 colon
SK-MEL-2 melanoma = test system: SK-MEL-2 melanoma
HOP-18 NSCLC = test system: HOP-18 NSCLC
SK-MEL-5 melanoma = test system: SK-MEL-5 melanoma
DMS 273 small cell lung = test system: DMS 273 small cell lung
COLO 205 colon = test system: COLO 205 colon
ACHN renal = test system: ACHN renal
M14 melanoma = test system: M14 melanoma
HCT-116 colon = test system: HCT-116 colon
SW-620 colon = test system: SW-620 colon
A498 renal = test system: A498 renal
DLD-1 colon = test system: DLD-1 colon
CAKI-1 renal = test system: CAKI-1 renal
MALME-3M melanoma = test system: MALME-3M melanoma
IGROV1 ovarian = test system: IGROV1 ovarian
SF-295 CNS = test system: SF-295 CNS
SNB-19 CNS = test system: SNB-19 CNS
SF-539 CNS = test system: SF-539 CNS
EKVX NSCLC = test system: EKVX NSCLC
SF-268 CNS = test system: SF-268 CNS
SK-OV-3 ovarian = test system: SK-OV-3 ovarian
OVCAR-5 ovarian = test system: OVCAR-5 ovarian
RXF 393 renal = test system: RXF 393 renal
SK-MEL-28 melanoma = test system: SK-MEL-28 melanoma
HT29 colon = test system: HT29 colon
SNB-75 CNS = test system: SNB-75 CNS
M19-MEL melanoma = test system: M19-MEL melanoma
HOP-92 NSCLC = test system: HOP-92 NSCLC
MOLT-4 leukemia = test system: MOLT-4 leukemia
SNB-78 CNS = test system: SNB-78 CNS
RPMI-8226 leukemia = test system: RPMI-8226 leukemia
LXFL 529 NSCLC = test system: LXFL 529 NSCLC
NCI-H23 lung = test system: NCI-H23 lung
OVCAR-3 ovarian = test system: OVCAR-3 ovarian
HCC-2998 colon = test system: HCC-2998 colon
UO-31 renal = test system: UO-31 renal
HL-60(TB) leukemia = test system: HL-60(TB) leukemia
CCRF-CEM leukemia = test system: CCRF-CEM leukemia
OVCAR-4 ovarian = test system: OVCAR-4 ovarian
NCI-H226 lung = test system: NCI-H226 lung
SR leukemia = test system: SR leukemia
NCI-H522 lung = test system: NCI-H522 lung
XF 498 CNS = test system: XF 498 CNS
DMS 114 small cell lung = test system: DMS 114 small cell lung
OVCAR-8 ovarian = test system: OVCAR-8 ovarian

Which TGI (UACC-257 melanoma) does the source give for CC(C)=CC(=O)Cc1nc2ccccc2[nH]c1=O here?
The TGI was greater than 100 µM.

And the TGI (786-0 renal)?
The TGI was greater than 100 µM.

And the TGI (TK-10 renal)?
Its TGI is greater than 100 µM.

What about the TGI (A549 NSCLC) of the same molecule?
The TGI was greater than 100 µM.

What about the TGI (SN12C renal) of the same molecule?
The TGI was greater than 100 µM.

And the TGI (LOX IMVI melanoma)?
The TGI was greater than 100 µM.

And the TGI (NCI-H460 lung)?
The TGI was greater than 100 µM.

And the TGI (RXF-631 renal)?
The TGI was greater than 100 µM.

And the TGI (KM20L2 colon)?
Its TGI is greater than 100 µM.

What about the TGI (K-562 leukemia) of the same molecule?
Its TGI is greater than 100 µM.

What about the TGI (HCT-15 colon) of the same molecule?
Its TGI is greater than 100 µM.

And the TGI (UACC-62 melanoma)?
Its TGI is greater than 100 µM.

And the TGI (U251 CNS)?
Its TGI is greater than 100 µM.

What about the TGI (HOP-62 NSCLC) of the same molecule?
Its TGI is greater than 100 µM.

What about the TGI (KM12 colon) of the same molecule?
Its TGI is greater than 100 µM.

And the TGI (SK-MEL-2 melanoma)?
The TGI was greater than 100 µM.

What about the TGI (HOP-18 NSCLC) of the same molecule?
Its TGI is greater than 100 µM.

And the TGI (SK-MEL-5 melanoma)?
The TGI was greater than 100 µM.

And the TGI (DMS 273 small cell lung)?
The TGI was greater than 100 µM.

What about the TGI (COLO 205 colon) of the same molecule?
Its TGI is greater than 100 µM.

And the TGI (ACHN renal)?
The TGI was greater than 100 µM.

What about the TGI (M14 melanoma) of the same molecule?
The TGI was greater than 100 µM.

And the TGI (HCT-116 colon)?
Its TGI is greater than 100 µM.

And the TGI (SW-620 colon)?
The TGI was greater than 100 µM.

What about the TGI (A498 renal) of the same molecule?
Its TGI is greater than 100 µM.

What about the TGI (DLD-1 colon) of the same molecule?
The TGI was greater than 100 µM.

And the TGI (CAKI-1 renal)?
The TGI was greater than 100 µM.

And the TGI (MALME-3M melanoma)?
Its TGI is greater than 100 µM.

And the TGI (IGROV1 ovarian)?
The TGI was greater than 100 µM.

And the TGI (SF-295 CNS)?
Its TGI is greater than 100 µM.

What about the TGI (SNB-19 CNS) of the same molecule?
The TGI was greater than 100 µM.

And the TGI (SF-539 CNS)?
The TGI was greater than 100 µM.

And the TGI (EKVX NSCLC)?
Its TGI is greater than 100 µM.

What about the TGI (SF-268 CNS) of the same molecule?
Its TGI is greater than 100 µM.

And the TGI (SK-OV-3 ovarian)?
Its TGI is greater than 100 µM.

And the TGI (OVCAR-5 ovarian)?
The TGI was greater than 100 µM.

What about the TGI (RXF 393 renal) of the same molecule?
Its TGI is 79.2 µM.

What about the TGI (SK-MEL-28 melanoma) of the same molecule?
The TGI was greater than 100 µM.

And the TGI (HT29 colon)?
The TGI was greater than 100 µM.

And the TGI (SNB-75 CNS)?
Its TGI is greater than 100 µM.

What about the TGI (M19-MEL melanoma) of the same molecule?
Its TGI is greater than 100 µM.

And the TGI (HOP-92 NSCLC)?
The TGI was 68 µM.

What about the TGI (MOLT-4 leukemia) of the same molecule?
The TGI was greater than 100 µM.

What about the TGI (SNB-78 CNS) of the same molecule?
The TGI was greater than 100 µM.

And the TGI (RPMI-8226 leukemia)?
Its TGI is greater than 100 µM.

And the TGI (LXFL 529 NSCLC)?
The TGI was greater than 100 µM.

What about the TGI (NCI-H23 lung) of the same molecule?
The TGI was greater than 100 µM.

And the TGI (OVCAR-3 ovarian)?
Its TGI is greater than 100 µM.

What about the TGI (HCC-2998 colon) of the same molecule?
The TGI was greater than 100 µM.

And the TGI (UO-31 renal)?
Its TGI is greater than 100 µM.

What about the TGI (HL-60(TB) leukemia) of the same molecule?
Its TGI is greater than 100 µM.

What about the TGI (CCRF-CEM leukemia) of the same molecule?
Its TGI is greater than 100 µM.

And the TGI (OVCAR-4 ovarian)?
The TGI was greater than 100 µM.

What about the TGI (NCI-H226 lung) of the same molecule?
The TGI was greater than 100 µM.

And the TGI (SR leukemia)?
Its TGI is greater than 100 µM.

O=C(O)Cc1cc(=O)oc2cc(O)c(Cl)cc12 was tested. Which TGI (786-0 renal) did it give?
The TGI was greater than 100 µM.

What about the TGI (TK-10 renal) of the same molecule?
Its TGI is greater than 100 µM.

What about the TGI (A549 NSCLC) of the same molecule?
Its TGI is greater than 100 µM.

And the TGI (SN12C renal)?
Its TGI is greater than 100 µM.

And the TGI (LOX IMVI melanoma)?
Its TGI is greater than 100 µM.

And the TGI (NCI-H460 lung)?
The TGI was greater than 100 µM.

What about the TGI (KM20L2 colon) of the same molecule?
The TGI was greater than 100 µM.

What about the TGI (K-562 leukemia) of the same molecule?
Its TGI is greater than 100 µM.

What about the TGI (HCT-15 colon) of the same molecule?
The TGI was greater than 100 µM.

And the TGI (UACC-62 melanoma)?
Its TGI is greater than 100 µM.

What about the TGI (U251 CNS) of the same molecule?
The TGI was greater than 100 µM.

What about the TGI (HOP-62 NSCLC) of the same molecule?
The TGI was greater than 100 µM.

What about the TGI (KM12 colon) of the same molecule?
Its TGI is greater than 100 µM.

What about the TGI (SK-MEL-2 melanoma) of the same molecule?
The TGI was greater than 100 µM.

And the TGI (HOP-18 NSCLC)?
The TGI was greater than 100 µM.

What about the TGI (SK-MEL-5 melanoma) of the same molecule?
Its TGI is greater than 100 µM.

What about the TGI (DMS 273 small cell lung) of the same molecule?
The TGI was greater than 100 µM.

What about the TGI (COLO 205 colon) of the same molecule?
Its TGI is greater than 100 µM.

And the TGI (ACHN renal)?
The TGI was greater than 100 µM.

And the TGI (M14 melanoma)?
Its TGI is greater than 100 µM.

What about the TGI (HCT-116 colon) of the same molecule?
Its TGI is greater than 100 µM.

What about the TGI (SW-620 colon) of the same molecule?
Its TGI is greater than 100 µM.

And the TGI (A498 renal)?
Its TGI is greater than 100 µM.

What about the TGI (DLD-1 colon) of the same molecule?
Its TGI is greater than 100 µM.

And the TGI (CAKI-1 renal)?
Its TGI is greater than 100 µM.

And the TGI (MALME-3M melanoma)?
The TGI was greater than 100 µM.

What about the TGI (IGROV1 ovarian) of the same molecule?
Its TGI is greater than 100 µM.

And the TGI (SF-295 CNS)?
Its TGI is greater than 100 µM.

And the TGI (SNB-19 CNS)?
The TGI was greater than 100 µM.

What about the TGI (SF-539 CNS) of the same molecule?
The TGI was greater than 100 µM.

And the TGI (EKVX NSCLC)?
The TGI was greater than 100 µM.

And the TGI (SF-268 CNS)?
Its TGI is greater than 100 µM.

What about the TGI (SK-OV-3 ovarian) of the same molecule?
The TGI was greater than 100 µM.

What about the TGI (OVCAR-5 ovarian) of the same molecule?
Its TGI is greater than 100 µM.

What about the TGI (NCI-H522 lung) of the same molecule?
The TGI was greater than 100 µM.

What about the TGI (SK-MEL-28 melanoma) of the same molecule?
Its TGI is greater than 100 µM.

What about the TGI (HT29 colon) of the same molecule?
The TGI was greater than 100 µM.

What about the TGI (SNB-75 CNS) of the same molecule?
The TGI was greater than 100 µM.

And the TGI (M19-MEL melanoma)?
The TGI was greater than 100 µM.

And the TGI (HOP-92 NSCLC)?
The TGI was greater than 100 µM.

What about the TGI (MOLT-4 leukemia) of the same molecule?
Its TGI is greater than 100 µM.

What about the TGI (RPMI-8226 leukemia) of the same molecule?
Its TGI is greater than 100 µM.

And the TGI (LXFL 529 NSCLC)?
Its TGI is greater than 100 µM.

And the TGI (NCI-H23 lung)?
The TGI was greater than 100 µM.

And the TGI (OVCAR-3 ovarian)?
Its TGI is greater than 100 µM.

And the TGI (HCC-2998 colon)?
The TGI was greater than 100 µM.

And the TGI (HL-60(TB) leukemia)?
Its TGI is greater than 100 µM.

And the TGI (XF 498 CNS)?
Its TGI is greater than 100 µM.

And the TGI (CCRF-CEM leukemia)?
The TGI was greater than 100 µM.

What about the TGI (OVCAR-4 ovarian) of the same molecule?
The TGI was greater than 100 µM.

What about the TGI (DMS 114 small cell lung) of the same molecule?
Its TGI is greater than 100 µM.

What about the TGI (NCI-H226 lung) of the same molecule?
The TGI was greater than 100 µM.

What about the TGI (OVCAR-8 ovarian) of the same molecule?
Its TGI is greater than 100 µM.
